# Results as given in patent publication US20060052453A1, “Agent for treating Parkinson's disease comprising astrocyte function-improving agent as active ingredient” (priority 2000, published 2006).
# What was measured:
# [1] = tested on: Experimental Model of Parkinson's Disease Induced by Administration of MPTP; experiment: Experimental model of Parkinson's disease induced by administration of MPTP; striatal dopamine and DOPAC content by HPLC; assay type: in vivo, mice; conditions: for DOPAC content / Dopamine content: average ± standard deviation
# Protocol: Improvement Effect of the Compound of the Present Invention in Experimental Model of Parkinson's Disease Induced by Administration of MPTP Male C57BL/6 mice (body weight: 20 to 28 g) were divided into groups each having 6 to 12 animals. Without anesthetizing, MPTP (10 mg/kg; 1-methyl-4-phenyl-1,2,3,6-tetrahydropyridine hydrochloride) was intraperitoneally administered to the mice 4 times at intervals of 1 hour (Brain Res., 824: 224-231 (1999)). To the models thus prepared, Compound A of the present invention ((R)-2-propyloctanoic acid) was administered after 1, 6, 24 and 48 hours. Three days after the final administration, striata of the mice were collected. After weighing, the striata were immediately frozen and stored. Then, dopamine content and DOPAC (3,4-dihydroxypyenylacetate) content were measured by HPLC in a conventional manner and evaluated. […] Dunnett's multiple comparison test (both sides) was performed on the basis of the data of the group with the administration of MPTP alone. The values in Table 1 are shown by the average±the standard deviation.
# dogs = experiment: Single intravenous dose toxicity in dogs; assay type: in vivo; conditions: single dose of 100 mg/kg
# From the text: It has been confirmed that the compounds of the present invention represented by formula (I) have such low toxicity as being sufficiently safe in using as drugs.
# [2] = Compound A alone 30 mg/kg, no MPTP, male C57BL/6 mice, striatum
# [3] = MPTP (10 mg/kg i.p. x4) + compound A 3 mg/kg at 1, 6, 24 and 48 hours, striatum 3 days after final administration
# [4] = MPTP (10 mg/kg i.p. x4) + compound A 10 mg/kg at 1, 6, 24 and 48 hours, striatum 3 days after final administration
# [5] = MPTP (10 mg/kg i.p. x4) + compound A 30 mg/kg at 1, 6, 24 and 48 hours, striatum 3 days after final administration
structure (smiles),measurement,setting,value
"CCCCCC[C@@H](CCC)C(=O)O [Compound A, (R)-2-propyloctanoic acid]",DOPAC content,[1]; [2],2.97 ± 0.49 µg/g
same,Dopamine content,[1]; [2],12.17 ± 1.41 µg/g
same,DOPAC content,[1]; [3],1.30 ± 0.31 µg/g
same,Dopamine content,[1]; [3],4.13 ± 1.48 µg/g
same,DOPAC content,[1]; [4],2.07 ± 0.77 µg/g
same,Dopamine content,[1]; [4],5.45 ± 2.00 µg/g
same,DOPAC content,[1]; [5],2.26 ± 0.52 µg/g
same,Dopamine content,[1]; [5],6.75 ± 2.72 µg/g
same,Dopamine and DOPAC content compared with the group of MPTP alone,"[1]; MPTP + compound groups vs MPTP alone, Dunnett's multiple comparison test",significantly increased dopamine and DOPAC content depending on the dose
same,Adverse effect when used alone,"[1]; compound alone in normal animals, data compared with control group",no adverse effect
same,Death,dogs,no case of death was observed
